From ChEMBL document CHEMBL1201862, “PubChem BioAssay data set” (2004)
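1) Cells in 96-well plates. 2) Compound, 48 h, 5 concentrations. 3) Linear interpolation between surrounding doses. 4) Unreached endpoint = highest concentration. GI50 is the concentration that inhibits growth by half.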 Calls of active or inactive are those of the source. Rule as the data show it: active = GI50 up to about 1.1 µM and inactive = higher.

Assays:
Experiment in all cases: NCI-60 cell line screen, 48 h
[1] = test system: Malme-3M
[2] = test system: CAKI-1
[3] = test system: RXF 393
[4] = test system: HCT-15
[5] = test system: EKVX
[6] = test system: SNB-75
[7] = test system: SF-268
[8] = test system: LOX IMVI
[9] = test system: SK-OV-3
[10] = test system: HOP-92
[11] = test system: SN12C
[12] = test system: MOLT-4
[13] = test system: COLO 205
[14] = test system: SK-MEL-5
[15] = test system: KM12
[16] = test system: SK-MEL-2

| Compound | GI50 [1] | GI50 [2] | GI50 [3] | GI50 [4] | GI50 [5] | GI50 [6] | GI50 [7] | GI50 [8] | GI50 [9] | GI50 [10] | GI50 [11] | GI50 [12] | GI50 [13] | GI50 [14] | GI50 [15] | GI50 [16] |
| --- | --- | --- | --- | --- | --- | --- | --- | --- | --- | --- | --- | --- | --- | --- | --- | --- |
| CC(C)COC1Sc2ccccc2S1 | 23.6 µM (inactive) | 16.3 µM (inactive) | 18.2 µM (inactive) | 22.4 µM | 20 µM (inactive) | 1.32 µM (inactive) | 23.1 µM (inactive) | 12.7 µM (inactive) | 28.1 µM (inactive) | 14.5 µM (inactive) | 18.8 µM (inactive) | 5.05 µM (inactive) | 32.4 µM (inactive) | – | – | – |
| CC1(C)OC2CC3COC(=O)C3CC2O1 (stereo not drawn) | > 100 µM (inactive) | > 100 µM (inactive) | – | > 100 µM | > 100 µM (inactive) | > 100 µM (inactive) | > 100 µM (inactive) | > 100 µM (inactive) | > 100 µM (inactive) | > 100 µM (inactive) | > 100 µM (inactive) | > 100 µM (inactive) | > 100 µM (inactive) | > 100 µM (inactive) | > 100 µM (inactive) | > 100 µM (inactive) |
| O=C(Nc1c(O)[nH]c(=S)[nH]c1=O)c1ccco1 | > 100 µM (inactive) | > 100 µM (inactive) | – | > 100 µM | – | > 100 µM (inactive) | > 100 µM (inactive) | > 100 µM (inactive) | > 100 µM (inactive) | 38.9 µM (inactive) | > 100 µM (inactive) | > 100 µM (inactive) | > 100 µM (inactive) | > 100 µM (inactive) | > 100 µM (inactive) | > 100 µM (inactive) |
| Cc1ccc(S(=O)(=O)OCC23CCC(C2)C2CC23)cc1 (stereo not drawn) | > 100 µM (inactive) | > 100 µM (inactive) | – | > 100 µM | – | – | > 100 µM (inactive) | > 100 µM (inactive) | > 100 µM (inactive) | 26 µM (inactive) | > 100 µM (inactive) | > 100 µM (inactive) | > 100 µM (inactive) | > 100 µM (inactive) | – | – |
| N#C/C(=C\c1ccc(O)c(O)c1)c1c(C#N)c(N)nn1-c1ccccc1 | 4.95 µM (inactive) | 1.59 µM (inactive) | – | 11.7 µM | 7.45 µM (inactive) | 13.3 µM (inactive) | 7.38 µM (inactive) | 5.05 µM (inactive) | 12.9 µM (inactive) | 8.71 µM (inactive) | 10.3 µM (inactive) | – | 24.1 µM (inactive) | 6.58 µM (inactive) | 15.6 µM (inactive) | 13 µM (inactive) |
| COc1cc2nc(NCCCCCNC(=O)c3ccco3)nc(N)c2cc1OC | 17.4 µM (inactive) | 42.6 µM (inactive) | 27.6 µM (inactive) | > 100 µM | > 100 µM (inactive) | 22.6 µM (inactive) | 36.2 µM (inactive) | – | 32.4 µM (inactive) | 12.2 µM (inactive) | 39.8 µM (inactive) | 24.8 µM (inactive) | 18.2 µM (inactive) | 19.2 µM (inactive) | 24 µM (inactive) | 19.7 µM (inactive) |
| COc1cc(C(C)O)c[n+](CCC2CNc3ccccc32)c1 (stereo not drawn) | > 100 µM (inactive) | > 100 µM (inactive) | – | > 100 µM | 33 µM (inactive) | > 100 µM (inactive) | 27 µM (inactive) | > 100 µM (inactive) | – | – | > 100 µM (inactive) | > 100 µM (inactive) | 43.3 µM (inactive) | > 100 µM (inactive) | > 100 µM (inactive) | > 100 µM (inactive) |
| CCOC(=N)/C(=C1\OC(=N)C(c2ccc(Cl)cc2)=C1O)c1ccc(Cl)cc1 | 14.3 µM (inactive) | 23.2 µM (inactive) | 13.8 µM (inactive) | – | 18.1 µM (inactive) | 18.8 µM (inactive) | 14.5 µM (inactive) | 13.9 µM (inactive) | 36.5 µM (inactive) | 18.5 µM (inactive) | 14.8 µM (inactive) | 17.9 µM (inactive) | 16.6 µM (inactive) | – | 18.4 µM (inactive) | – |
